According to patent US10898419B2, “Compounds for promoting hair growth and/or inhibiting or delaying hair loss in humans, and compositions for such uses” (GIULIANI S.P.A., priority 2016, dated 2021):

What was measured:
[1] = test system: cultured human keratinocytes; conditions: Busse et al.; cited from earlier work
[2] = target: T1, olfactory receptor OR2AT4 (Homo sapiens, UniProt A6NND4); conditions: according to Busse et al.; cited from earlier work
T1 sequence (A6NND4 1-320): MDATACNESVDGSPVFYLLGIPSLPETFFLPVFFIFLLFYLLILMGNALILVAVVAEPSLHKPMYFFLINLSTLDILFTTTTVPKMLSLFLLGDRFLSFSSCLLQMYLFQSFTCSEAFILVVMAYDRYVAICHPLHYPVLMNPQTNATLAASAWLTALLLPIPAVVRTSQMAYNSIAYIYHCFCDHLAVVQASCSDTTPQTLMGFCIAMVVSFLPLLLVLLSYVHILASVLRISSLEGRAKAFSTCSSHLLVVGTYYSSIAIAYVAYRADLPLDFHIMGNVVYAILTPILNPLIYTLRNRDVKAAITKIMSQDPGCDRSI

TGFβ2 = TGFβ2 immunofluorescence in ORS keratinocytes of cultured HFs; type: cell-based, human; conditions: 500 μM (Phenirat 1:1), 6 day-treatment, proximal ORS keratinocytes, compared to vehicle
Protocol: In addition, TGFβ2, a potent catagen inducer, was investigated with reference to the same above compounds.
OCT embedded samples were sectioned (6 μm thickness) with a cryostat. Sections were fixed in 4% paraformaldehyde, pre-incubated with 10% of goat serum (for OR2AT4) or 5% goat serum+0.3% Tritton X-100 (for cleaved-caspase 3) and incubated with the corresponding primary antibody at 4° C. overnight ( 1/100 for OR2AT4 and 1/400 for cleaved-caspase 3). Secondary antibody incubation was performed at RT for 45 min. Counterstaining with DAPI (1 μg/mL) was performed to visualize nuclei. For TGFb2, samples were fixed in acetone and the endogenous peroxidases were blocked with 3% of H2O2. This step was followed by an avidin-biotin blocking step and a preincubation with TNB buffer (Tris HCl+NaCl+Casein). […] Images were taken using a Keyence fluorescence microscope (Osaka, Japan) maintaining a constant set exposure time throughout imaging for further analysis. […]
Staining intensity was evaluated in well-defined reference areas by quantitative (immuno-)histomorphometry, as previously described (Bertolini et al., 2014) using NIH IMAGE software (NIH, Bethesda, Md., USA). […]
TGFβ2 expression was quantified using Image J. Mean±SEM, n=14-22 HFs from 2 patients, Kruskal-Wallis and Dunn's multiple comparisons test as post hoc test, *p<0.05, ***p<0.001, and Mann-Whitney test, ns. […]

[3] = test system: microdissected human scalp HFs; assay: Hair cycle score / staging (catagen induction) in HF organ culture; type: cell-based; conditions: 500 μM (Phenirat 1:1), 6 days of culture, compared to vehicle
Protocol: (§1) HFs were treated with either the vehicle, sandal pentanol, Phenirat or a mixture of sandal pentanol and Phenirat. To analyse modifications of the hair cycle, Ki67/TUNEL were performed and used to evaluate hair cycle score and hair matrix keratinocytes proliferation and apoptosis.
Human scalp samples were obtained after face-lifting procedure and used at the same day for microdissecting human anagen VI scalp HFs. Microdissected human scalp HFs were cultured at 37° C. with 5% CO2 in a minimal media of William's E media (Gibco, Life technologies) supplemented with 2 mM of L-glutamine (Gibco), 10 ng/ml hydrocortisone (Sigma-Aldrich), 10 μg/ml insulin (Sigma-Aldrich) and 1% penicillin/streptomycin mix (Gibco) (WEM) as previously described (Philpott, 1990; Kloepper, 2010; Langan et al, 2015). […]
(§2) Phenirat was added 30 min before sandal pentanol. Hair shaft elongation was measured daily using an inverted binocular microscope (Philpott et al., 1990) and culture medium was replaced every second day. […]
To investigate the specificity of the effect on hair growth of OR2AT4 stimulation by sandal pentanol, microdissected HFs were cultured with sandal pentanol and/or Phenirat, and hair cycle performed staging analysis as previously described (Kloepper, 2010; Langan et al, 2015). Hair cycle score was measured both in treated and vehicle HFs after 6 days of culture. […]

[4] = test system: hair matrix keratinocytes; assay: Ki67/TUNEL staining of hair matrix keratinocytes in HF organ culture; type: cell-based, human; conditions: 500 μM (Phenirat 1:1), 6 day-culture, compared to vehicle
Protocol: as §1
OCT embedded samples were sectioned (6 μm thickness) with a cryostat. Sections were fixed in 4% paraformaldehyde, pre-incubated with 10% of goat serum (for OR2AT4) or 5% goat serum+0.3% Tritton X-100 (for cleaved-caspase 3) and incubated with the corresponding primary antibody at 4° C. overnight ( 1/100 for OR2AT4 and 1/400 for cleaved-caspase 3). Secondary antibody incubation was performed at RT for 45 min. Counterstaining with DAPI (1 μg/mL) was performed to visualize nuclei. For TGFb2, samples were fixed in acetone and the endogenous peroxidases were blocked with 3% of H2O2. This step was followed by an avidin-biotin blocking step and a preincubation with TNB buffer (Tris HCl+NaCl+Casein). The corresponding primary antibody was incubated at 4° C. overnight ( 1/1000 for TGFb2). Secondary antibody incubation was performed at RT for 45 min before using the Tyramide signal amplification kit (Perkin Elmer). Counterstaining with DAPI was performed to visualize nuclei. To stain apoptotic and proliferating cells, we have used the apoptag kit (Merck Milipore) following manufacture's protocol followed by Ki67 staining. The primary antibody was incubated overnight (Ki67, 1/20) after the TdT-enzyme step. The secondary antibody was incubated for 45 min at RT after the fluorescent-labelled anti-Digoxigenin step of the apoptag kit. Counterstaining with DAPI was performed to visualize nuclei. Negative controls were performed by omitting the primary antibody. Images were taken using a Keyence fluorescence microscope (Osaka, Japan) maintaining a constant set exposure time throughout imaging for further analysis.
After 24 h of incubation, WEM medium was replaced and HFs were treated with the corresponding substances for 6 days following experimental conditions. HFs were treated either with vehicle (0.1% DMSO), sandal pentanol (500 μM), Phenirat (in a ratio 1:1 to the agonist), or a mixture sandal pentanol+Phenirat.
Staining intensity was evaluated in well-defined reference areas by quantitative (immuno-)histomorphometry, as previously described (Bertolini et al., 2014) using NIH IMAGE software (NIH, Bethesda, Md., USA).
With reference to the evidence of FIG. 4, to investigate whether sandal pentanol influences hair matrix keratinocytes proliferation and apoptosis, Ki67/TUNEL staining was performed. Proliferating (diagram of FIG. 4A) and apoptotic (diagram of FIG. 4B) hair matrix keratinocytes were counted in the hair matrix of treated and vehicle HFs. […]

keratinocytes = conditions: long-term stimulation, in vitro wound scratch assay, Busse et al.; cited from earlier work
[5] = test system: microdissected human scalp HFs; assay: Hair shaft elongation in HF organ culture; type: cell-based; conditions: 500 μM, cultured microdissected HFs from two donors, compared to vehicle
Protocol: (§3) Then, in order to assess whether stimulation of OR2AT4 can influence human hair growth, microdissected HFs were treated with sandal pentanol at a concentration of 500 μM, as the agonist and a hair shaft elongation measurement was performed (see Philpott et al., 1990). In addition, a kinase assay was conducted in order to identify which signalling pathways are involved in the specific stimulation of OR2AT4 by sandal pentanol.
Human scalp samples were obtained after face-lifting procedure and used at the same day for microdissecting human anagen VI scalp HFs. […]
as §2
To check whether the activation of OR2AT4 can influence the hair cycle of human HF, microdissected human HFs were specifically stimulated with the potential agonist, sandal pentanol. The effect of the sandal pentanol treatment was evaluated by measuring hair shaft elongation compared to vehicle.
HF elongation was measured in cultured microdissected HFs. […]

[6] = test system: apoptotic signalling pathway; assay: Kinase assay of signalling pathways after OR2AT4 stimulation; type: cell-based, human; conditions: specific stimulation of OR2AT4 in microdissected HFs
Protocol: as §3

[7] = test system: human skin organ cultures; conditions: Busse et al.; cited from earlier work

effect on apoptotic signalling pathway [6]	Compound	Ca2+ signals [1]	activity at olfactory receptor OR2AT4 [2]	TGFβ2 expression at the protein level (TGFβ2)	catagen induction / anagen prolongation (hair cycle score) [3]	hair matrix keratinocyte apoptosis (TUNEL) [4]	hair matrix keratinocyte proliferation (Ki67) [4]	cell proliferation, migration and regeneration of keratinocyte monolayers (keratinocytes)	hair shaft elongation [5]	epidermal wound healing [7]
	CC1=CC[C@@H](CC[C@@H](C)CO)C1(C)C (stereo in doubt) [brahmanol, 2-Methyl-4-(2,2,3-trimethyl-3-cyclopenten-1-yl)butanol]	induce Ca^2+ signals	agonists							
	CC(C)C(=O)OCCOc1ccccc1 [Phenirat, phenoxyethyl isobutyrate, reference compound]		specific antagonist	no change	did not prolong anagen	this effect is not obtained	did not change			
Inhibits Apoptotic Signalling Pathway	CC1=CCC(CCC(C)C(C)O)C1(C)C (centres unmarked) [sandal pentanol, 3-methyl-5-(2,2,3-trimethylcyclopent-3-en-1-yl)pentan-2-ol]	induce Ca^2+ signals	agonists	significant decrease	delayed catagen induction	significantly decreased	did not change	positively affects	stimulates hair shaft elongation	enhances epidermal wound healing
